Values belong to the compound of their own block, whether it stands above or below them. Calls of active or inactive are those of the source.
Columns and labels:
[1] = target: Alkaline phosphatase, placental type (Homo sapiens, UniProt P05187); test: human placental alkaline phosphatase inhibition – biochemical, luminescence, confirmation (AID 1512); format: functional
Aminopeptidase N = target: T1, Aminopeptidase N (Plasmodium falciparum FcB1/Columbia, UniProt O96935); test: malaria alanyl aminopeptidase activity blockers – biochemical, fluorogenic H-Leu-NHMec substrate, 1536-well (AID 1445); parameters: species or system Plasmodium falciparum 3D7, 3D7
T1 sequence (O96935 whole entry): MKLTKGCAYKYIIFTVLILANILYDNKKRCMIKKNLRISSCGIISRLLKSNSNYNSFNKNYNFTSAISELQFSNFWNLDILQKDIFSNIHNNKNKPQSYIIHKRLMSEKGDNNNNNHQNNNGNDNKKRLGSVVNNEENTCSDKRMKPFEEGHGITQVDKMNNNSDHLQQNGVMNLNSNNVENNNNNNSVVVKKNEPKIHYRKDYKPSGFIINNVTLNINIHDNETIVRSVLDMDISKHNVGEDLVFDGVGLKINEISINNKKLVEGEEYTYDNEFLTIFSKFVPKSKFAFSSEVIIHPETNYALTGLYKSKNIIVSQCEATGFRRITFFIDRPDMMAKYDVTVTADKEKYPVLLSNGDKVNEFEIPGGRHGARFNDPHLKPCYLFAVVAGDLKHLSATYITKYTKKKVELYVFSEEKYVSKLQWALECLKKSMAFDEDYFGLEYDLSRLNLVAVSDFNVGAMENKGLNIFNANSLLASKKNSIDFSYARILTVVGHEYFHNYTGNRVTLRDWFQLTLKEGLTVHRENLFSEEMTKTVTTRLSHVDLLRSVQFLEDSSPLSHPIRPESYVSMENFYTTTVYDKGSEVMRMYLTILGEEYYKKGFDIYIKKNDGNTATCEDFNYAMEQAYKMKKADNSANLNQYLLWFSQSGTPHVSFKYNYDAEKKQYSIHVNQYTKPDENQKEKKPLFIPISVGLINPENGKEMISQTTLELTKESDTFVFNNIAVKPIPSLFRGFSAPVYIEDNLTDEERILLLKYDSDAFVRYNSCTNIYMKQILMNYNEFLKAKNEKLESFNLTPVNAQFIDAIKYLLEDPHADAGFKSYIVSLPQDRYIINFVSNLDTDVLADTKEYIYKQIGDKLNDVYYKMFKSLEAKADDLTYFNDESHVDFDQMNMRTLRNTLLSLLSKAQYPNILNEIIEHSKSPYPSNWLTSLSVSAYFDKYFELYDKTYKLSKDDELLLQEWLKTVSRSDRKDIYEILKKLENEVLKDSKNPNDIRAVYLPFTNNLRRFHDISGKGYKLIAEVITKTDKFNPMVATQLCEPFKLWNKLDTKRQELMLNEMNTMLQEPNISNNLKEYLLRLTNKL

[2] = target: T2, Voltage-gated N-type calcium channel alpha-1B subunit/Amyloid beta A4 precursor protein-binding family A member 1 (Homo sapiens, UniProt Q00975+Q02410); format: protein assay
T2 sequence (Q00975 whole entry): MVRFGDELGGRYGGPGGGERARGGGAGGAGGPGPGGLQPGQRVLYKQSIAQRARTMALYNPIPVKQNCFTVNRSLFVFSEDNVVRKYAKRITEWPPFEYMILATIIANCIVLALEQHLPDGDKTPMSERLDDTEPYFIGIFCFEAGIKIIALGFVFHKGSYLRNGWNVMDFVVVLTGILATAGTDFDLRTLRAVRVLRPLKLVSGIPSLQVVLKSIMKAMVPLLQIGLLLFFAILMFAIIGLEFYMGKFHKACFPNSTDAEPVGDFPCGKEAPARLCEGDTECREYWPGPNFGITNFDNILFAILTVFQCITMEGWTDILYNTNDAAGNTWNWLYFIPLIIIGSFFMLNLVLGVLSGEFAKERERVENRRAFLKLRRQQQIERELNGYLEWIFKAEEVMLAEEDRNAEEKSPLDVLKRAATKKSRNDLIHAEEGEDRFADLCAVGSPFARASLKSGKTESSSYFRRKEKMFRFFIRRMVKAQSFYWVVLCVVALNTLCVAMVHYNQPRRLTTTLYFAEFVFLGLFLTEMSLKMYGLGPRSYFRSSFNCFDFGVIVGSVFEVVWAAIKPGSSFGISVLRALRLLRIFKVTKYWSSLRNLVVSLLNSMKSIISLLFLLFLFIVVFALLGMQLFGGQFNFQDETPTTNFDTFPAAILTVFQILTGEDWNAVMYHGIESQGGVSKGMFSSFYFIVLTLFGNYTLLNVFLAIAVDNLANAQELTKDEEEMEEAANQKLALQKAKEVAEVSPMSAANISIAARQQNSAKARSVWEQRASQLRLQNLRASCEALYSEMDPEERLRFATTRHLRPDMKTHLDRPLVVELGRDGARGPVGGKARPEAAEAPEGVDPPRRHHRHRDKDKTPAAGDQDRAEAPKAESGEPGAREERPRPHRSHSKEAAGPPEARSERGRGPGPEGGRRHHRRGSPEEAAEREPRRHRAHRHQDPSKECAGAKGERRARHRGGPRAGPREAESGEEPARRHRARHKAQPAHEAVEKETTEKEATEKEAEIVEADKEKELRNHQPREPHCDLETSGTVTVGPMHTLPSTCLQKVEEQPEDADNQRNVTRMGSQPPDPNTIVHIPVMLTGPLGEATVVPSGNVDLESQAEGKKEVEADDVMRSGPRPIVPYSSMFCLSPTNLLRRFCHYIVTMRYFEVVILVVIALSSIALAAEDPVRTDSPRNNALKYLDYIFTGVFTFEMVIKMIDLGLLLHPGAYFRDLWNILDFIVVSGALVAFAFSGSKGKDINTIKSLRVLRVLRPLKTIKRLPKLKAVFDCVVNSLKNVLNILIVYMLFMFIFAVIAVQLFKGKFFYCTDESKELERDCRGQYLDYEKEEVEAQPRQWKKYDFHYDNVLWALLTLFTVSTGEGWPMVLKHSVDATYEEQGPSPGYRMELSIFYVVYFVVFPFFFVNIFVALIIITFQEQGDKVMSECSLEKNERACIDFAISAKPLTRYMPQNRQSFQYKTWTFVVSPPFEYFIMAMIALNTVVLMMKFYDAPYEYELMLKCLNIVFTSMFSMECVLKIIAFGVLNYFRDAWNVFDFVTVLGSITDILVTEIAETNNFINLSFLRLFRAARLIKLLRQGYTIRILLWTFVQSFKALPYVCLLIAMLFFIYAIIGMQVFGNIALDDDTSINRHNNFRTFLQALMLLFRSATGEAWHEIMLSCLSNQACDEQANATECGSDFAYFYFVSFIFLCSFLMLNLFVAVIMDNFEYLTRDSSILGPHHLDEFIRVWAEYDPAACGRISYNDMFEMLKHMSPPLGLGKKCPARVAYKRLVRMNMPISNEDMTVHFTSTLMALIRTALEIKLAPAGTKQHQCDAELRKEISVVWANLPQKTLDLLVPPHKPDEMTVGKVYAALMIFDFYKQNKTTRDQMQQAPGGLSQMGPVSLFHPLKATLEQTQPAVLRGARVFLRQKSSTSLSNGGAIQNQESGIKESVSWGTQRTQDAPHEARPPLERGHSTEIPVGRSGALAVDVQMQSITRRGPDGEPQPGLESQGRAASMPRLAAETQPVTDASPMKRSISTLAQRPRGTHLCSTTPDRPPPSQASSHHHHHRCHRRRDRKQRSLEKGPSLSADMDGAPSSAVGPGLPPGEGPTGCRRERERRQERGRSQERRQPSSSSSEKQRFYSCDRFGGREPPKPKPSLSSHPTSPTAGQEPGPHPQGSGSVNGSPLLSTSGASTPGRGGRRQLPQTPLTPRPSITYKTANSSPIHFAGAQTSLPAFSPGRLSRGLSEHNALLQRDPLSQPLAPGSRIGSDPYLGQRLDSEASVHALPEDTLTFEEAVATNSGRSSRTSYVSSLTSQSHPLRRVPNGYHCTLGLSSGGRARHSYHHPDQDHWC
T2 sequence (Q02410 whole entry): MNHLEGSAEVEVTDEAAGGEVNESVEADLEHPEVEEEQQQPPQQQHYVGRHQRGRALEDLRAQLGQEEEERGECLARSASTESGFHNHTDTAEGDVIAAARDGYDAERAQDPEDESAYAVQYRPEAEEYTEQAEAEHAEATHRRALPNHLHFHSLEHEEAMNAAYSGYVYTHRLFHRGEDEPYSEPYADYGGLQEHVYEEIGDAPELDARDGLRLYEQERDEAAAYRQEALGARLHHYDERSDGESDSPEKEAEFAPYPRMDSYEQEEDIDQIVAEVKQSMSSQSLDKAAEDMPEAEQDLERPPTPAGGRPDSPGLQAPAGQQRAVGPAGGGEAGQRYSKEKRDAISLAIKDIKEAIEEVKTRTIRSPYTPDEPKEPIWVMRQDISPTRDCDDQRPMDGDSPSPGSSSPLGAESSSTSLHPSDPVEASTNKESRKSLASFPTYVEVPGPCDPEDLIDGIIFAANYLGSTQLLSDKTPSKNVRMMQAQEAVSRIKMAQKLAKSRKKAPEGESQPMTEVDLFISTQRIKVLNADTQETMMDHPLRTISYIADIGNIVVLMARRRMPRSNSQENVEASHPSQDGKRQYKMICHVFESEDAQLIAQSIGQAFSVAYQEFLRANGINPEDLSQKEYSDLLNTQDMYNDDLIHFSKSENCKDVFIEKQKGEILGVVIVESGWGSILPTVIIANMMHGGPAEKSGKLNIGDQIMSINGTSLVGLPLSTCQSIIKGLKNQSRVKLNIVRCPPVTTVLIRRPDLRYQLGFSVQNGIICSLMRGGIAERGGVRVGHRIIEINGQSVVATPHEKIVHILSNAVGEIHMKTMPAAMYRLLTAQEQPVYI

[3] = target: T2, Voltage-gated N-type calcium channel alpha-1B subunit/Amyloid beta A4 precursor protein-binding family A member 1; format: protein assay; remark: listed apart in the source
[4] = target: T3, Corticotropin-releasing factor receptor 2/Corticotropin-releasing factor-binding protein (Homo sapiens, UniProt P24387+Q13324); test: Dose Response confirmation of uHTS hits for small molecule antagonists of the CRF-binding protein and CRF-R2 receptor complex.; format: functional; conditions: read-out: IC50_Mean
T3 sequence (Q13324 whole entry): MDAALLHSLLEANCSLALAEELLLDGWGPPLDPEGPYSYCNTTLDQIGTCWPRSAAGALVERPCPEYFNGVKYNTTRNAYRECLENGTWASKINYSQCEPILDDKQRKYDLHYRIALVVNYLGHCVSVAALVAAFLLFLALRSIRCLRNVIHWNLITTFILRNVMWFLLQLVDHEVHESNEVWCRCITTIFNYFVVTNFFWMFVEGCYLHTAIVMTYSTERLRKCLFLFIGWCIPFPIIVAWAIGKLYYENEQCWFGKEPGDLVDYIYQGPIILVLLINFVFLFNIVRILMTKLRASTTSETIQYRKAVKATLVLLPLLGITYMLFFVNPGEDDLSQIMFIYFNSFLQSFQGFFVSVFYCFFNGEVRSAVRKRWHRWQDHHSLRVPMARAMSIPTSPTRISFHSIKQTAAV
T3 sequence (P24387 whole entry): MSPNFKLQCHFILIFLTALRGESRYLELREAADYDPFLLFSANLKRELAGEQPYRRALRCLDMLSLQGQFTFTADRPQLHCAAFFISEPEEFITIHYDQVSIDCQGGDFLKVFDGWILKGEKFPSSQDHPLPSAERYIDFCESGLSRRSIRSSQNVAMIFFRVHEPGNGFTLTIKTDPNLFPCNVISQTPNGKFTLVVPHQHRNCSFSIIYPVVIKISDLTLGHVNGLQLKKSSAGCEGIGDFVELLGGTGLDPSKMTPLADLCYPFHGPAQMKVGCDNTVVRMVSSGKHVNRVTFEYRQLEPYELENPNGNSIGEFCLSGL

[5] = target: T4, C-C chemokine receptor type 6 (Homo sapiens, UniProt P51684); test: antagonism of CCR6 beta-arrestin recruitment – cell-based, luminescent beta-arrestin readout, dose response (AID 504728); format: functional
T4 sequence (P51684 whole entry): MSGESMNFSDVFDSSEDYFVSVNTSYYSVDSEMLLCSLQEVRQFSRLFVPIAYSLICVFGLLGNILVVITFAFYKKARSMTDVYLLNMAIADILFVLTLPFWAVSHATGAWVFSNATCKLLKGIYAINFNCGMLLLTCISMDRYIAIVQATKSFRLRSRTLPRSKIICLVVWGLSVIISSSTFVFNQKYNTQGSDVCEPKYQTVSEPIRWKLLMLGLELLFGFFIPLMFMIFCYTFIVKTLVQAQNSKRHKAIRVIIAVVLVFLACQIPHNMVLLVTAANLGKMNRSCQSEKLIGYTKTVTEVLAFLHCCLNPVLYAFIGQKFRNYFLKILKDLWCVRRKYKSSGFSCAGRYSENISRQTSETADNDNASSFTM

[6] = target: T3, Corticotropin-releasing factor receptor 2/Corticotropin-releasing factor-binding protein; test: activators of CRF receptor 2 with binding protein – uHTS hits, confirmation (AID 602473); format: functional; conditions: read-out: EC50_Mean
Beta-galactosidase = Beta-galactosidase (Escherichia coli, UniProt Q8VNN2); test: detection-enzyme interference by beta-gal modulators – biochemical, E. coli enzyme, set 3, artefact control for CCR6 antagonist project, dose response (AID 504712); format: functional
Beta-galactosidase, sequence (Q8VNN2 whole entry): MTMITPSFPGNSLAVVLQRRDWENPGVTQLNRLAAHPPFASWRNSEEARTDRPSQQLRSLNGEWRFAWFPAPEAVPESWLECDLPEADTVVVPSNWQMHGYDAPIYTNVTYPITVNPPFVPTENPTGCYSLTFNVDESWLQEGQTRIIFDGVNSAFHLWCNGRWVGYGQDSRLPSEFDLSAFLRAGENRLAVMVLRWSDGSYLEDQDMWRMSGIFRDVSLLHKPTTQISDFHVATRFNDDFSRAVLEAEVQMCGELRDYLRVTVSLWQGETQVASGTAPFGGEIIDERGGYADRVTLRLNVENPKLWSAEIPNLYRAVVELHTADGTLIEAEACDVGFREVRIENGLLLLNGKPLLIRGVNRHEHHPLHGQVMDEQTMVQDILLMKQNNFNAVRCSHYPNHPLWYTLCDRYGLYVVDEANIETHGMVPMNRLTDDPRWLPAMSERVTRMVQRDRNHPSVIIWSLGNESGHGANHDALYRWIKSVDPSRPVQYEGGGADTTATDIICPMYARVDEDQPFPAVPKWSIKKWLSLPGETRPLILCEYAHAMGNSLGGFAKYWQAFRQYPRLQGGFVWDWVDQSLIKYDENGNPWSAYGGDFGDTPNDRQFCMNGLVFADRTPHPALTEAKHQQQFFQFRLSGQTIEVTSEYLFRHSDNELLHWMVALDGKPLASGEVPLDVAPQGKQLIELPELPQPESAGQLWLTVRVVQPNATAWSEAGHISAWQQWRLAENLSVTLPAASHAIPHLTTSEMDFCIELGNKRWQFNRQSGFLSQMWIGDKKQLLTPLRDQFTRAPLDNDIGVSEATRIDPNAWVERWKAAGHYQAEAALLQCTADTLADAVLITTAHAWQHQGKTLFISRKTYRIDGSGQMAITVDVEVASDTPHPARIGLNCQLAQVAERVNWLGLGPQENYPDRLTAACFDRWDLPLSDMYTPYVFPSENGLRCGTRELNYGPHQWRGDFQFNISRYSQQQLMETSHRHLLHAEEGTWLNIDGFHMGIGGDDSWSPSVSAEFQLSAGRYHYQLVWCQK

[7] = target: Heat shock protein HSP 90-alpha (Homo sapiens, UniProt P07900); format: functional, organism-based
Hexokinase = target: T5, Hexokinase (Trypanosoma brucei, UniProt Q38C41); test: Confirmation assay for inhibitors of Trypanosoma brucei hexokinase 1-Analogue-first series. [Related pubchem assays (depositor defined):AID1430, AID1632, AID2516, AID2560, AID2579, AID2600, AID449725, AID492951]; format: functional
T5 sequence (Q38C41 whole entry): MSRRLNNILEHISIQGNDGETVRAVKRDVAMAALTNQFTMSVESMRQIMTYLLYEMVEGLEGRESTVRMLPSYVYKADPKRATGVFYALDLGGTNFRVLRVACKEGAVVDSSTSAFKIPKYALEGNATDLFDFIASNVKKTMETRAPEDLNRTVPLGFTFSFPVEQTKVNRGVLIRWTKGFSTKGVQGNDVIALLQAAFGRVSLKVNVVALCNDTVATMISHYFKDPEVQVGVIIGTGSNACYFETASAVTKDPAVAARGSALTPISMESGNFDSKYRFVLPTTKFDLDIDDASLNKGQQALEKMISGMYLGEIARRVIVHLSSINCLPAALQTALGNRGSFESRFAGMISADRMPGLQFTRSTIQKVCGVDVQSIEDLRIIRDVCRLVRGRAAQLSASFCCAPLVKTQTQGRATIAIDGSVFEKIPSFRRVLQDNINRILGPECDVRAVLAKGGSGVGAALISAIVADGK

[8] = toxicity toward HepG2 liver cells – cell-based, plate reader, cherry-pick, antagonist series, cytotoxicity control, dose response (AID 743416); format: functional
[9] = A549 cell cytotoxicity, dose response, cytotoxicity control, plate reader, cherry-pick, antagonist series (AID 743412); format: functional, cell-based
[10] = blockers of bursicon-stimulated LGR2 cAMP reporter – cell-based, HEK293, CRE-luciferase reporter, cherry pick, set 2, dose response (AID 743343); format: functional;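 note: transfected cells were stimulated with diluted bursicon conditioned medium after compound addition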
[11] = loss of viability in HepG2 cells – cell-based, CellTiter-Glo, cherry-picked, cytotoxicity control for Shn3 inhibitor project, dose response (AID 624134); format: functional
Paired box protein Pax-8 = Paired box protein Pax-8 (Homo sapiens, UniProt Q06710); test: PAX8 transcriptional activity inhibition in RMG-I – RMG-I cells, luciferase, cherry-pick, dose response (AID 687027); format: functional, cell-based;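 note: luciferase reporter driven by Pax8 target thyroperoxidase promoter measured by SteadyGlo luminescence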
Paired box protein Pax-8, sequence (Q06710 whole entry): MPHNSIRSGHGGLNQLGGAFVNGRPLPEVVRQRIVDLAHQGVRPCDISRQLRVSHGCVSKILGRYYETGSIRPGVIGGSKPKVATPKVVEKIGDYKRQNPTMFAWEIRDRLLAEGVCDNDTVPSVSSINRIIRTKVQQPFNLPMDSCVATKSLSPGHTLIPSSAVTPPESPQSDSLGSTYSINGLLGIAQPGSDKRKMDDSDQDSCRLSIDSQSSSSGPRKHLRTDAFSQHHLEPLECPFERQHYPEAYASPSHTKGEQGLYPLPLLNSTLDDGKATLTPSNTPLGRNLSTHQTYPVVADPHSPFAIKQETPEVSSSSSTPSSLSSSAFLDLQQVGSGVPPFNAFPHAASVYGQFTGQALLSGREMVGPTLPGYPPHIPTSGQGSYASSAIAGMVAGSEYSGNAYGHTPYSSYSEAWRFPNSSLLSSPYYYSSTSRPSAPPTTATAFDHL

[12] = blockade of melanocortin 4 receptor signaling – cell-based, plate reader, cherry pick, counter-screen for LGR2 antagonist project, dose response (AID 743444); format: functional;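 note: transfected HEK 293 cells stimulated with alpha-MSH peptide; potency of inhibitors of the alpha-MSH evoked signal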
[13] = reduction of Shn3 3'UTR-driven luciferase in osteoblasts – cell-based, Clone20 osteoblasts, firefly luciferase, cherry-picked, dose response (AID 624132); format: functional;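 note: firefly luciferase luminescence from reporter carrying the Shn3 3'UTR in osteoblasts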
[14] = viability loss in HEK293 cells – cell-based, plate reader, cherry-picked samples, cytotoxicity control, dose response (AID 743446); format: functional
[15] = non-specific 3'UTR reporter inhibition in Clone20-Shn3RL – cell-based, Renilla luciferase, cherry-picked, counter-screen for Shn3 inhibitor project, dose response (AID 624133); format: functional
[16] = target: Photoreceptor-specific nuclear receptor (Homo sapiens, UniProt Q9Y5X4); format: functional, cell-based;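 note: CHO-S cells with Gal4-NCOR and VP16-NR2E3 two-hybrid luciferase reporter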
Photoreceptor-specific nuclear receptor, sequence (Q9Y5X4 whole entry, the tested form may be a part): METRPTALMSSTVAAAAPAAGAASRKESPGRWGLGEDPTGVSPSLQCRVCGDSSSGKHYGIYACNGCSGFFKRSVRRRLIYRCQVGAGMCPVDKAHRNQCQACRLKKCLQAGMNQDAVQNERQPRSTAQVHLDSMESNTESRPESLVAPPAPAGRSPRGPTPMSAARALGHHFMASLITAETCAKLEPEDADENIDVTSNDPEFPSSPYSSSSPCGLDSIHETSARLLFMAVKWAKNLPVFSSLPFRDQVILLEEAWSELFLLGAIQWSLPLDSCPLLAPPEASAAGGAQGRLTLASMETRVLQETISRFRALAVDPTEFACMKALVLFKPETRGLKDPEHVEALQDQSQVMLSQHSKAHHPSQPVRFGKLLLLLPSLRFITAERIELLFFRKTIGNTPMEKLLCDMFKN

- IC50 [1]: > 100 µM (inactive)
SMILES: Cn1cc(Br)c(C(=O)NNC(=O)c2cccc(Br)c2)n1

- IC50 (Aminopeptidase N): 39.3 µM (active)
SMILES: CNC(=O)c1nc[nH]c1C(=O)N[C@@H](CC(C)C)C(=O)OC(C)(C)C

- IC50 [2]: 4.01 µM (active)
- IC50 [3]: 10.1 µM (active)
SMILES: C/C=C\C=C/C(=O)Nc1cccc(C2=NOC3(C2)C[C@@H](C(N)=O)N(C(=O)/C=C/C=C\C)C3)c1 (stereo partly specified)

- IC50 [4]: > 47.1 µM (inactive)
- IC50 [5]: 21.1 µM (inactive)
- EC50 [6]: > 53 µM (inactive)
- IC50 (Beta-galactosidase): > 66.6 µM (inactive)
- AC50 [7]: 0.902 µM (active)
SMILES: COc1ccc(/C=C2/CCC(CN3CCOCC3)C2=O)cc1 (stereo unspecified)

SMILES: CN(Cc1ccccc1)C(=O)Cn1sc2ccccc2c1=O
- IC50 (Hexokinase): 7.87 µM (active)

SMILES: Cc1ccc(C(=O)Nc2cc(Cl)ccc2C(=O)O)cc1C
- IC50 (Hexokinase): 10.7 µM (active)

SMILES: O=C(Nc1cc(Cl)ccc1C(=O)O)c1ccc2ccccc2c1
- IC50 (Hexokinase): 5.41 µM (active)

SMILES: CC(=O)O/C(=C1\CC2C3CC=C4CC(OC(C)=O)CCC4(C)C3CCC2(C)C1=O)C(F)(F)F (stereo unspecified)
- IC50 [5]: > 66.6 µM (inactive)
- IC50 (Beta-galactosidase): > 66.6 µM (inactive)

SMILES: CC(=O)Nc1ccc(Sc2ccc([N+](=O)[O-])o2)cc1
- AC50 [8]: 13.8 µM (active)
- AC50 [9]: 37 µM (active)
- AC50 [10]: 26.4 µM (active)
- AC50 [11]: 20.6 µM (active)
- IC50 [5]: > 66.6 µM (inactive)
- AC50 (Paired box protein Pax-8): 7.36 µM (active)
- AC50 [12]: 22.7 µM (active)
- AC50 [13]: 2.15 µM (active)
- AC50 [14]: 7.13 µM (active)
- AC50 [15]: 11.2 µM (active)
- IC50 (Beta-galactosidase): > 66.6 µM (inactive)
- IC50 [16]: 2.72 µM (active)

Reference: ChEMBL document CHEMBL1201862, “PubChem BioAssay data set” (2004)
